# Measurements taken from patent US20220409573A1, “Hippocampus Regeneration And Memory Recovery” (INNOBIOSCIENCE, LLC, priority 2021, published 2022).
# Columns and labels:
# [1] = test system: Wnt/β-catenin pathway in hippocampal slices; assay: β-catenin, GSK-3β and Dvl-3 western blot in hippocampal slices of wild-type mice; type: cell-based; details: for time at which total levels of β-catenin increased: 5 μM ANDRO, Wnt3a conditioned medium or 10 nM 6-BIO, up to 1 h
# Method: Slice preparation. […] Transverse slices (250-300 μm) from the dorsal hippocampus were cut under oxygen-saturated cold artificial cerebrospinal fluid using a Vibroslice microtome (VSL, World Precision Instruments, Inc WPI, Sarasota, Fla.). After obtained, slices were incubated in ACSF for at least than one hour at room temperature, in order to stabilize activity.
# Immunoblotting. […] Briefly, tissues were homogenized in RIPA buffer (10 mM Tris-Cl, pH 7.4, EDTA 5 mM, 1% NP-40, 1% sodium deoxycholate, and 1% SDS) supplemented with a protease inhibitor mixture (1 mM PMSF, 2 μg/mL aprotinin, 1 μg/mL pepstatin and 10 μg/mL benzamidine) and phosphatase inhibitors (25 mMNaF, 100 mM Na3VO4, 1 mM EDTA and 30 μM Na4P207) using a Potter homogenizator and then passed sequentially through different caliber syringes. […] Protein concentration was determined using the BCA Protein Assay Kit (Pierce). […] The reactions were followed by incubation with anti-mouse, anti-goat or anti-rabbit IgG peroxidase conjugated (Pierce, Rockford, Ill.) and developed using an ECL kit (Western Lightning Plus ECL, PerkinElmer).
# [2] = test system: Wnt target genes; assay: PCR array of Wnt target genes in hippocampal neurons; type: cell-based, rat
# Method: Primary culture of rat hippocampal neurons. […] PCR-ARRAY. RNA from hippocampal neurons was extracted using Trizol. Quantification and purity of RNA preparations were checked by absorbance using Nanodrop ND-2000. Only preparations with a 260/280 nm ratio≥1.8, a 260/230 nm ratio ≥1,7 and no sign of RNA degradations, verified by agarose gel electrophoresis with Gel Red TM were used. Genomic DNA was degraded. Using RT2First-Strand cDNA Synthesis kit (SuperArray), 1 μg total RNA was reverse transcribed and then real-time PCR was performed by adding cDNA directly to PCR Master Mix, containing SYBR Green and ROX. The mixtures were then aliquoted into a 96-well PCR array plates, which profiles the expression of 84 Wnt target genes from rat. The PCR was run on ABI StepOnePlus, with 1 cycle of 10 min at 95° C. followed by 40 cycles of 15 s at 95° C. and 1 min at 60° C.
# Treatment of neuronal cultures. Primary hippocampal cultures of neurons 14 DIV were washed twice in neurobasal medium and maintained for 1 hour.
# [3] = test system: CA3-CA1 connections in hippocampal slices; assay: Electrophysiology in Wt hippocampal slices (fEPSP, PPF, LTP, LTD); type: cell-based, mice; details: hippocampal slices; 6-BIO 10 nM
# Method: Slice Preparation and Electrophysiology. […] Slices were transferred to an experimental chamber (2 ml), superfused (3 ml/min, at 20-22° C.) with gassed ACSF and visualized by trans-illumination with a binocular microscope (MSZ-10, Nikon, Melville, N.Y.). To evoke field excitatory postsynaptic potentials (fEPSPs), we stimulate with bipolar concentric electrodes (Platinum/Iridium, 125 μm OD diameter, FHC Inc., Bowdoin, Me.) generated by a stimulator (Axon 700b, Molecular Devices, Sunnyvale, Calif.) and connected to an isolation unit (Isoflex, AMPI, Jerusalem, Israel) . The stimulation was in the Stratum Radiatum within 100-200 μm from the recording site. The paired pulse facilitation index was calculated by ((R2−R1)/R1), where R1 and R2 were the peak amplitudes of the first and second fEPSP respectively. To generate LTP we used Theta Burst Stimulation (TBS) consisting of 5 trains of stimulus with an inter-train interval of 20 s. Each train consisted of 10 bursts at 5 Hz and each burst having 4 pulses at 100 Hz. To generate LTD we used Low Frequency Stimulation (LFS) consisting in 900 paired pulses at 1 Hz. Recordings were filtered at 2.0-3.0 kHz, sampled at 4.0 kHz using an A/D converter, and stored with pClamp 10 (Molecular Devices). Evoked postsynaptic responses were analyzed off-line, using an analysis software (pClampfit, Molecular Devices), which allowed visual detection of events, computing only those events that exceeded and arbitrary threshold.
# [4] = test system: HEK293T cells; assay: TOP/FOP flash luciferase reporter assay; type: cell-based
# Method: Luciferase Assay. 150,000 HEK293T cells were seeded in triplicate per condition and kept for 24 hours at 37° C. with 5% CO2. The cultures were transfected with TOPflash or FOPflash (400 ng), which are firefly-luciferase reporter DNA constructs (Milipore), using LipofectAMINE 2000 (Invitrogen). To control for transfection pRL-TK (10 ng) was included in all transfections. […] Values were normalized by the renilla value from the same well. To statistically compare treatments ANOVA was used.
# [5] = 9 h treatment, of the 86 genes analyzed
Molecule,time at which total levels of β-catenin increased [1] [min],inhibition of β-catenin accumulation by Wnt antagonists sFRP and Dkk-1 ([1]; antagonists 15 min before 5 μM ANDRO or Wnt3a conditioned medium for 1 h),Cdh-1 gene expression [2],"number of Wnt target genes specifically modulated [2, 5] [genes]","number of changed Wnt target genes shared by ANDRO and 6-BIO [2, 5] [genes]",rate of increase of GSK3β Ser-9 and decrease of Tyr-216 phosphorylation ([1]; compared to Wnt-3a treatment),induction of LTD (fEPSP slope after LFS) [3],"TOPflash reporter activity ([4]; ANDRO 10 μM or 6-BIO 10 nM, 24 h)","increase of luciferase reporter over control ([4]; TOPflash, HEK293T) [fold]"
Wnt-3a,45,able to inhibit the accumulation of β-catenin in the presence of Wnt3a,–,–,–,–,–,–,–
"O=C1Nc2cc(Br)ccc2/C1=C1/Nc2ccccc2/C1=N\O [6-BIO, 6-bromoindirubin-3′-oxime, reference compound]",15,–,does not,4,4,faster,complete inhibition of the induction of LTD,significant increase,~6
